Assay results taken from US20230059009A1, “INHIBITORS OF LIN28 AND METHODS OF USE THEREOF” (The Regents of the University of California, priority 2019, published 2023).
Entries after “also recorded” stand apart in the source; their conditions may differ.

Assays:
[1] = target: T1, PRPF31 (Homo sapiens, UniProt Q8WWY3); experiment: MDA-MB-231 TNBC cell numbers with PRPF31 overexpression or silencing; type: cell-based; set-up: mGFP (C); host or cells: MDA-MB-231 TNBC cells; details: 100 μM LN1632
T1 sequence (Q8WWY3 1-499): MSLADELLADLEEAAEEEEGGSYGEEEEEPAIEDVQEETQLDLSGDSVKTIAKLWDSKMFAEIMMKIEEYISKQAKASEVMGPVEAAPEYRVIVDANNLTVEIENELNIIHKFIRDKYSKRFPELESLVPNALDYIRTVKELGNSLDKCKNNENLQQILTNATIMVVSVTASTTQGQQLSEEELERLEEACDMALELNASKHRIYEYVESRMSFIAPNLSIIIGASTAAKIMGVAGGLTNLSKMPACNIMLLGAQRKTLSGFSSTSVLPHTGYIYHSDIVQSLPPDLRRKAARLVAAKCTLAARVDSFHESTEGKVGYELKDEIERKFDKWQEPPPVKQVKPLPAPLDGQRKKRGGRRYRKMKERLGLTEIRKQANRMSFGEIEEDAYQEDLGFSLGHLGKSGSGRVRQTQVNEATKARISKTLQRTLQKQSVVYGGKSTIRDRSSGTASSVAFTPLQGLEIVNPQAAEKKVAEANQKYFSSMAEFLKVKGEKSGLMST
Source text: MDA-MB-231 TNBC cells were used to evaluate whether LN1632 targets PRPF31.

[2] = tested on: THP-1 cells (high LIN28B); experiment: Subcutaneous THP-1 AML xenograft; type: in vivo, NSG / NSGS mice; details: for Tumor growth: 100 mg/kg
Procedure: (§1) Subsequently, the tumor suppressive effect of LN1632 in cancer in vivo was assessed. High LIN28B expressing THP-1 AML cells (2×10^6 cells) were implanted in NSGS mice (cell suspension in matrigel, 3:1) and at d+12 or d+8 (tumor size=50 mm^2) injection of LN1632 IP at 100 mg/kg daily was initiated. […] The effect of LN1632 in a systemic Kasumi-1 xenograft was also assessed. […] The effects of LN1632 to cytarabine chemotherapy (Ara-C) was also compared, as previously described (74). THP-1 AML cells were subcutaneously implanted (1.5×10^6 cells, high LIN28B) in NSGS mice. Daily IP injections with 100 mg/kg LN1632, 60 mg/kg cytarabine chemotherapy (Ara-C), or vehicle was started at +d3 post AML cell implantation and continued until the vehicle group reached maximal allowed tumor size (250 mm^2).

[3] = tested on: Kasumi-1; experiment: Systemic Kasumi-1 AML xenograft; type: in vivo, mice; details: systemic Kasumi-1 xenograft; for Animal survival: IP 100 mg/kg every other day for 21 d; for Tumor burden (bioluminescence imaging): IP 100 mg/kg every other day, d+26
Procedure: as §1

[4] = Tolerability / MTD in healthy C57BL/6 mice
Procedure: Next, the tumor suppressive effect of LN1632 in vivo was investigated. The maximum tolerated dose (MTD) was evaluated in healthy female C57Bl/6 mice.

[5] = tested on: SW620; experiment: Cell viability, CTG, SW620; type: cell-based; details: SW620 (Colon)
Procedure: To measure cell viability, cell titer glow (CTG, Promega CellTiter-Glo 2.0 Assay) and MTT assays (SigmaAldrich, Cell Proliferation Kit I) were performed. Briefly, cells were serum starved overnight prior to seeding in 96-well plates. Following 24 h incubation, cells were treated with increasing concentrations of JGJ compounds for 96 hr. At assay read-out, CellTiter-Glo reagent was added and luminescence was measured after 10-minutes incubation at room temperature. For the MTT assay, MTT labeling reagent was added and incubated for 4 h. Subsequently, medium was removed and 50 μL DMSO was added to solubilize the crystals, and absorbance was measured at 570 nm. Cell viability was calculated as (Sample-Background)/(Control-Background). Current standard of care drugs, Enzalutamide, Palbociclib and Cetuximab were used as comparative controls.

[6] = tested on: AML pt #13 cells; experiment: Engraftment of ex vivo treated primary AML pt #13 cells in NSGS; set-up: species or system NSGS mice; details: ex vivo treatment 120 μM for 72 h, 12 weeks
[7] = tested on: Caco2; experiment: Caco2 permeability; type: in vitro ADME; details: Conc. 100 uM
[8] = tested on: let-7 target genes / MYC target gene signatures; experiment: RNA sequencing in Kasumi-1 cells; type: cell-based, human; details: 40 μM or 100 μM LN1632 vs control
Source text: To measure the complete degree to which LN1632 regulates gene expression, we carried out RNA sequencing (RNAseq) in LSC-like Kasumi-1 cells. […] Importantly, we confirmed this gene expression pattern in primary AML cells from three relapsed patients (validated for LIN28B overexpression compared to healthy WBM). […] This is important because NFκB1, regulated by let-7 through IL6 (23) is, together with other BCL-2 family members (BAX, BCL2L15 and BMF, FIG. 5A), a well characterized gene associated with unique properties of LSC survival and AML relapse (45, 59, 60). […] We next explored the effect of LN1632 on primary AML cells.
To determine the degree to which LN1632 regulates gene expression, RNA sequencing was performed in human Kasumi-1 AML cells. […] In addition, ingenuity pathway analysis predicted suppression of upstream signaling molecules IL6 and MYC (FIG. 9C).

[9] = target: T1, PRPF31; experiment: MS-CETSA and IP-MS target engagement; type: binding; set-up: endogenous in cells; host or cells: Kasumi-1 cell lysate
Procedure: Mass spectrometry cellular thermal shift assay (MS-CETSA, FIG. 12A) as described in (75), and immunoprecipitation using biotinylated LN1632 (FIG. 12B) were performed. […] PRPF31 is recruited to introns where its highly conserved Nop-domain coordinates the U4 snRNA—15.5K protein interaction. Subsequently, PRPF31 stabilizes the U4/U6.U5 tri-snRNP by concomitantly interacting with PRPF6 and induces the transition of the spliceosomal complex to the activated state (78).

[10] = tested on: CD34+ AML pt. #13 cells; experiment: CFC assay, AML pt #13 CD34+ cells vs healthy CD34+ BM cells; type: cell-based, human; details: AML pt #13 vs healthy donor CD34+ cells; 80-120 μM

Question: For `CC(=O)N(C)c1cccc(-c2ccc3nnc(C)n3n2)c1` [LN1632], which “Anti-proliferative / pro-apoptotic effect under PRPF31 overexpression or shRNA silencing” value [1] is on record?
Answer: rescued anti-proliferative effects of LN1632; also recorded: abrogated pro-apoptotic effects of LN1632

Question: And the Tumor growth ([2]; THP-1 subQ in NSG mice, 100 mg/kg IP every other day)?
Answer: significantly slowed tumor growth; also recorded: significantly reduced tumor growth

Question: What about the Tumor growth ([2]; THP-1 subQ in NSGS mice, 100 mg/kg IP daily) of the same compound?
Answer: significantly reduced tumor growth 19 days post injection; also recorded: significantly slowed tumor growth

Question: And the “AML tumor proliferation, LN1632 vs Ara-C” value ([2]; THP-1 subQ in NSGS mice, daily IP 100 mg/kg LN1632 or 60 mg/kg Ara-C from +d3)?
Answer: increased inhibition of AML tumor proliferation compared to Ara-C or vehicle treated mice; also recorded: inhibited proliferation

Question: And the Animal survival ([3]; 100 mg/kg)?
Answer: significantly prolonged animal survival; also recorded: prolongs survival

Question: And the Animal survival ([3]; listed as 1632, 100 mg/kg)?
Answer: prolongs survival; also recorded: significantly prolonged animal survival

Question: What about the “Tumor burden (bioluminescence imaging)” value ([3]; 100 mg/kg) of the same compound?
Answer: decreased tumor burden; also recorded: reduces tumor burden

Question: What about the “Tumor burden (bioluminescence imaging)” value ([3]; listed as 1632, 100 mg/kg) of the same compound?
Answer: reduces tumor burden; also recorded: decreased tumor burden

Question: What about the Weight gain ([4]; 100 mg/kg daily +12 d then every other day +9 d, at +21 d) of the same compound?
Answer: normal weight gain; also recorded: no significant changes in weight gain

Question: And the “Complete blood count (CBC) profile” value ([4]; 100 mg/kg daily for +12 d then every other day for +9 d, female C57Bl/6 mice)?
Answer: normal complete blood count (CBC) profile, without any leukopenia or thrombocytopenia, only mild anemia

Question: What about the Tolerability ([4]; 100 mg/kg every other day for 21 d, healthy C57BL/6 mice) of the same compound?
Answer: non-toxic, well tolerated

Question: What about the “Tolerability (MTD evaluation)” value ([4]; mouse, in vivo) of the same compound?
Answer: well tolerated

Question: And the IC50 [5]?
Answer: 191 µM

Question: What about the “AML repopulation capability in vivo” value [6] of the same compound?
Answer: inhibited AML repopulation capability in vivo

Question: And the “Caco2 Mean A-B % Recovery” value [7]?
Answer: 89.4%

Question: What about the Caco2 efflux ratio [7] of the same compound?
Answer: 1.08

Question: And the “Caco2 permeability Papp A-B” value [7]?
Answer: A-B: 20.9 10^−6 cm/s

Question: And the “Caco2 permeability Papp B-A” value [7]?
Answer: B-A: 22.7 10^−6 cm/s

Question: And the “Gene expression (RNAseq)” value [8]?
Answer: significant downregulation of a panoply of direct let-7 target genes; also recorded: significantly downregulated genes of the HALLMARK_MYC-TARGETS_V1 gene signature

Question: And the “Interaction partners by MS-CETSA and immunoprecipitation” value [9]?
Answer: interacts with additional RNA-binding proteins, in particular pre-mRNA processing factor 31

Question: And the “Tm shift (MS-CETSA)” value ([9]; Kasumi-1 cell lysate)?
Answer: induces Tm shift of endogenous PRPF31

Question: And the “IP-MS capture with biotinylated LN1632, competitive elution” value ([9]; n=3)?
Answer: captures PRPF31

Question: What about the “Colony formation (CFC)” value [10] of the same compound?
Answer: affects colony formation of CD34^+ AML pt. #13 cells significantly more than healthy CD34^+BM cells
